Each structure is given as a SMILES string.

The test system of test [1] is alcA:35S chimeric promoter (CAT reporter gene expression). As to the kind of experiment: CAT expression from wild type A nidulans alcA-CAT transformants GA2-1 and GA2-5. The format is cell-based, Aspergillus nidulans. As to the method: Conidial suspensions of A nidulans were grown in supplemented minimal medium containing 0.1% fructose as the carbon source, for 20 hours at 200 revs/min in an orbital incubator at 37° C. Inducing chemical was added to the mycelia at 20 hours and allowed to grow for a further 4 hours. The mycelia was harvested as before. Uninduced mycelia was allowed to grow for 24 hours in the medium described above.
300 mgs of mycelia, frozen in liquid nitrogen, was ground in a chilled pestle and mortar with an equal amount of acid washed sand for 20 seconds. 1 ml of extraction buffer, (0.1 M Tris pH 7.5), was added and the mycelia ground for a further 30 seconds. Another 1 ml of extraction buffer was added and the mycelia was ground again for 30 seconds. 1 ml of the ground mycelia mixture was transferred into eppendorfs and centrifuged at 13,000 revs/min for 5 minutes in a microcentrifuge. The supernatant was transferred to new eppendorfs and the protein concentration estimated using the Bradford's assay.
Stably transformed A nidulans was obtained by co-transforming a pyrG89 strain with the pDJB3 and palcA-CAT/pUC plasmids using the PEG method. Plasmid palcA-CAT/pUC contains the CAT reporter gene between the alcA:35S chimeric promoter and the nos transcription terminator. Two independent transformants (GA2-1 and GA2-5) were obtained which contained uninterrupted copies of the alcA-CAT construct. This was shown by probing genomic DNA, restricted with HindIII, with the 0.7 kb SalI fragment of the CAT gene.
The CAT activity of the alcA-CAT A nidulans transformants was measured when they were grown under a variety of conditions. FIG. 4 is a graph showing CAT expression from the GA2-1 and GA2-5 transformants (wild type with alcA-CAT construct) growing in 0.1% fructose (F) or 1% glucose (G) in the absence or presence of 50 mM ethyl methyl ketone as inducer (I). […] The induction of CAT was prevented when the transformants were grown in 1% glucose even in the presence of inducer indicating the carbon catabolyte repression function of the alcA promoter was retained.
FIG. 5 is a graph showing the effect of cyclohexanone concentration (mM) on CAT expression in the transformant GA2-1 growing in 0.1% fructose (F) or 1% glucose (G).

Test [2] concerns alc expression cassette 35S-alcR/alcA-CAT (CAT reporter gene expression). Description: CAT activity in leaves of stably transformed tobacco after leaf paint with inducer. The format is in vivo. The method, then:
Cyclohexanone was applied to the plant leaves as a paint. The cyclohexanone paint consisted of a 10% solution of 950 g/L cyclohexanone, 35 g/L syperonic NDE 1800, 16.5 g/L Tween 85 in thickener. Both surfaces of the leaf were applied with paint at 100 μl solution per 16-25 cm^2 of leaf surface, on days 0 and 2. Leaf tissue was harvested prior to inducer application and at appropriate times after the second application of paint. 1 cm^2 of leaf tissue was removed with a sterile scalpel, put in an eppendorf, and immersed in liquid nitrogen. CAT assays were undertaken within 4 hours of leaf sampling.
The leaf tissue was allowed to defrost at room temperature for several minutes after storage in liquid nitrogen. A sterile micropestle was used to grind the leaf tissue in the eppendorf for 30 seconds and then 100 μl of 100 mM Tris pH 7.8 was added. The plant mixture was then vortexed for 20 seconds and centrifuged at 13,000 revs/min for 5 minutes. The supernatant was transferred to a new eppendorf. 50 μl of leaf extract was used for a CAT assay and the rest was used to determine the protein concentration wit the Bradford's method.
CAT assays were undertaken according to the Dupont method as described in Example 4.
The data obtained from this analysis are shown in FIG. 9: at each time point, results are given in the order S34:D3:T1. Leaves were treated with cyclohexanone leaf paint on day 0 and day 2. Samples of leaf tissue were taken immediately prior to each treatment (0-0 and 2-0 in FIG. 9) and thereafter at seven intervals up until day 3. Protein extracts were made from the leaf samples and CAT activity determined in the samples using the diffusion assay described above.
The leaves of the plants were painted with a 10% iso-propanol solution at 0 and 60 minutes and the CAT expression of leaf samples was measured at 240 minutes. The CAT expression found in the alcA-CAT and alcA-CAT/35S-alcR transgenic plants at 0 minutes was low as it was in the control untransformed tobacco plants.

Test [3] relates to ADHI expressed from the alcA gene. Particulars: Creaser et al 1984 / shown previously; cited from earlier work.

As to `CCC(C)=O` [EMK, butan-2-one (ethyl methyl ketone)], in test [1] (GA2-1 and GA2-5, 0.1% fructose, 50 mM inducer), the “CAT activity of the alcA-CAT reporter construct” value is given as “high”. The “induction of CAT” value in test [1] (GA2-1 and GA2-5, 1% glucose, 50 mM inducer) is “prevented”.

Take `O=C1CCCCC1` [cyclohexanone]: in test [1] (GA2-1 transformant), the “concentration of optimal inducing ability (concentration curve)” value is 25 mM and the “induction of CAT expression” value is given as “found to induce CAT expression”. Further, the “effect on CAT activity” value in test [2] is “no effect”. Moreover, the “CAT expression level after application to leaves” value in test [2] (plant D3 (35S-alcR/alcA-CAT), cyclohexanone leaf paint) is given as “high CAT expression level”. Besides, in test [2] (plant D3, leaf paint on day 0 and day 2), the “time of peak CAT activity after the second inducing treatment” value is 160 min. Further, the “CAT activity as % of the maximum activity seen in the 35S-alcR/alcA-CAT leaves” value in test [2] (plants T1 and S34 after cyclohexanone leaf paint) is recorded as 5-20%. The “inducer strength for alcA / ADHI” value in test [3] is on record as “potent inducer”.

Turning to `CC(C)O` [iso-propanol, propan-2-ol], in test [2] (10% solution painted at 0 and 60 minutes, measured at 240 minutes, alcA-CAT, alcA-CAT/35S-alcR and control plants), the “increase in CAT activity” value is “no significant increase”. For the same compound, the “effect on the alc expression cassette” value in test [2] (tobacco plants) is given as “no apparent effect”. For the same compound, the “inducer strength for alcA / ADHI” value in test [3] is recorded as “weak inducer”.

Source of the values: patent publication US6605754B1, “DNA constructs and plants incorporating them” (priority 1992, dated 2003).
